From patent US20010025105A1, “Certain substituted 1-aryl-3-piperazine-1'-yl propanones” (Molecular Geriatarics Corporation, priority 1997, published 2001)
Where a name gives a salt, the structure may show the parent alone.

Tests used:
[1] = test system: TG3 immunoreactivity in OKA treated MSN1a cells; test: MSN1a cell culture model, ELISA with TG3 antibody, okadaic acid treated cells; format: cell-based, human; details: Homo sapiens, 1 μM OKA, 2 hrs at 37° C., read-out: IC50 for inhibition of TG3 immunoreactivity in OKA treated MSN1a cells
Experimental: This assay can thus be used to determine whether a drug is capable of preventing or intervening in AD by attenuating the production of abnormally phosphorylated paired helical filament epitopes associated with AD. To determine whether a drug is capable of preventing or intervening in AD activity, the MSN1a cells containing tau and associated proteins are treated with OKA capable of greatly increasing immunoreactivity of the MSN1a cells with AD specific monoclonal antibodies. Then, either prior to or concomitantly with OKA treatment, a compound of the present invention is added to the culture. If the compound prevents the induction of the AD epitopes in the MSN1a cells treated with OKA, then it is said to have anti-AD activity. If the AD-specific antibodies are highly reactive with the neuroblastoma cells following OKA treatment in the presence of compound, then the compound is said to be ineffectual against AD.
The MSN1a human neuroblastoma line was subcloned from a population of MSN cells obtained from the laboratory of Dr. Peter Davies (Albert Einstein College of Medicine, New York, N.Y.). Cells were grown and maintained in flasks in RPMI 1640 medium, supplemented with 15% fetal calf serum, 100 U/ml penicillin, 100 U/ml Streptomycin, 0.5 ug/ml fungizone under 7.5% CO2 at 37° C.
Stock solutions of drugs were prepared by dissolving the anhydrous powders to final concentrations of either 10 or 20 mM in 50% aqueous or 100% dimethyl sulfoxide (DMSO), respectively. Working solutions of drugs were prepared by dilution of the stock solutions with Kreb's Ringer in Hepes buffer (KRH) (128 mM NaCl, 5 mM KCl, 2.5 mM CaCl2 1.2 mM MgSO4, 1 mM Na2HPO4, 10 mM dextrose, 20 mM Hepes, pH 7.4). OKA is maintained as a 1 mM stock solution in DMSO prior to dilution to 4 μM in KRH.
MSN cells grown in 225 cm^2 flasks are removed from the incubator, their medium decanted and replaced with 50 ml pre-warmed KRH. The cells are harvested by scraping prior to sedimentation at 1000 rpm for 5 min. The supernatants are discarded and the cell pellets are resuspended, the cells counted and diluted to a density of 2×10^4 cells/[…]. The cells are then plated in a 96 well plate at 50 μl/well and 25 μl of 4 μM OKA and 25 μl of drug are then added to the appropriate wells; the entire 96 well plate is then incubated for 2 hrs at 37° C. Depending on the dilution of drug added, this yields individual wells containing 1 μM OKA, 0-64 μM drug and 2×10^4 cells in 0.26% DMSO in KRH. The incubation is terminated by the addition of 20 μl of 6X extraction buffer and immediate freezing at −80° C. for at least one hr. The 6X extraction buffer contains: 25 mM Tris-HCl, pH 7.6, 150 mM NaCl, 5 mM EDTA, 24 mM β-glycerol phosphate, 10 μg/ml APMSF (4-amidinophenylmethane-sulfonyl flouride), and 2.5 μg/ml each of leupeptin, aprotinin, and pepstatin. The plates are thawed in a 37° C. water bath and 20 μl of cell lysate is added to a replica well in an ELISA plate that already contains 80 μl of coating buffer (15 mM Na2CO3 and 35 mM NaHCO3, pH 9.6). The plates are allowed to coat overnight at 4° C. The plates are washed four times with deionized water and then blocked for 30 min at 37° C. with 200 μl/well pre-warmed 1% bovine serum albumin in 10 mM Tris-HCl, pH 7.4, 150 mM NaCl, 3 mM NaN3 (BSA-TBS). After the blocking solution is removed, 100 μl/well of an appropriate dilution of pre-warmed primary antibody (eg., TG3 or PHF-1) in BSA-TBS is added and incubated at 37° C. for 30 min. Incubation is terninated by washing four times in deionized water at which time 100 μl of an appropriate dilution of pre-warmed secondary antibody (conjugated to alkaline phosphatase) in BSA-TBS is added to each well in the ELISA plate. Incubation is performed for 30 min at 37° C. followed by washing 4 times with deionized water. […] of prewarmed chromogenic substrate (1 mg/mnl p-nitrophenyl phosphate in 10% diethanolamine, 3 mM NaN3, 0.5 mM MgCl2, pH 9.8) is added and the plate incubated for 30 min at 37° C. […]

[2] = test system: paired helical filament epitopes in MSN1a cells; test: Western blot of PHF-1 immunoreactivity in lysates of MSN1a cells; format: cell-based, human; details: 100 μM chlorpromazine, 2 hours at 37° C.
Experimental: These compounds are effective at micromolar concentrations, with increased potency being evident when cells are treated prior to the addition of okadaic acid. The effective concentrations appear to be in the range at which these drugs are present in the brain following chronic treatment of psychiatric patients (Svendsen, C N, Psychopharnacology, 90, 316-321, 1986). […] The cells were isolated by centrifugation, boiled for 10 minutes and […] protein from the resulting heat stable supernatants were loaded per lane on an SDS-PAGE gel. The gel was electrophoretically transferred to nitrocellulose membrane and then immnunostained with PHF-1. […] The use of the MSN1a cell culture model for screening of novel compounds for therapeutic activity in AD is, therefore, quite warranted.

[3] = test system: PHF epitopes in human brain tissue; test: Retrospective study of autopsy brain tissue of chronically treated patients, direct ELISA using TG3 antibody; format: in vivo; details: N 51, sum of absorbance readings for 8 dilutions
Source text: In a subsequent study, 51 additional patients were identified and the analysis was repeated as above using the TG3 antibody in an ELISA format.

[4] = test system: PHF epitope levels in human brain tissue; test: Retrospective study of autopsy brain tissue of chronically treated patients, ALZ-EIA method; format: in vivo; details: frontal (Broadman area 10) and temporal (Broadman area 38) regions, FIGS. 4A and 4B
Experimental: Frontal and cortical brain tissue specimens obtained at autopsy from patients chronically treated with chlorpromazine were analyzed using the ALZ-EIA method previously described (Ghanbari, H A, et al, JAMA, 263, 2907, 1990). […] The brain tissue (post-mortem) from approximately the same number of (age matched) normal controls and Alzheimer's Disease patients were also analyzed and are presented in these figures as negative and positive controls (for normal and AD, respectively). […] Bick, K L. Raven Press, New York, 1994).

[5] = test system: microtubule cytoskeleton of human CG neuroblastoma cells; test: Antimicrotubule activity, tubulin immunofluorescence microscopy; format: cell-based; details: 2 hr at 37° C., read-out: Concentration where microtubule destabilization occurs
Experimental: The compounds of the invention according to formula I are effective in destabilizing microtubules, thus are useful in treating certain neoplastic diseases. Indirect immunofluorescence microscopy using the monoclonal antibodies to tubulin is used herein to determine the activity of the compounds of this invention in promoting depolymerization of the microtubule cytoskeleton in cultured cells. The following assay was employed.
Cultured human CG neuroblastoma cells were seeded 1:3 from confluent cultures onto sterile 11×22 mm coverslips in 6 well tissue culture plates 16 hr prior to treatment. The following day, the tissue culture medium is removed and the cells are exposed to various concentrations of compounds of this invention in Krebs Ringer Hepes (KRH) buffer containing a final concentration of 0.5% DMSO as carrier. Incubations were performed at 37° C. in a humidified 5% CO2 atmosphere for 2 hr. After incubation, the cells were fixed in 3% TEM grade formaldehyde in PBS for 45 min at room temperature.
To visualize the effects of the compounds of the invention on the microtubule cytoskeleton, the cells were processed for tubulin immunofluorescence. Briefly, the cells were permeabilized in 0.5% Triton-X 100 in PBS for 5 min. The cells were washed 2× with PBS and aldehydes reduced using 0.5 mg/ml NaBH4 in PBS for 5 min. Subsequently, the cells were blocked for 10 min in 1.5% BSA and 1.5% nonfat dry milk in PBS (blocking solution, BS) for 10 min. The cells were then incubated for 30 min at 37° C. with the monoclonal antibody Tu27B which recognizes b-tubulin (dilution 1:20 in BS). Subsequently, the cells were washed 2× in PBS and once in BS. The cells were then incubated for 30 min at 37° C. with sheep antimouse IgG conjugated to FITC. After incubation, the cells were washed 2× in PBS and once in BS and incubated for 30 min at 37° C. with rabbit antisheep IgG conjugated to FITC. The cells were rinsed in PBS, counterstained with Hoechst 33285 in PBS (1 μg/ml), and rinsed in PBS. The coverslips were mounted in 9:1 glycerol:PBS containing 1 mg/ml p-phenylenediamine and sealed with nail polish.
The cells were viewed using a Jenalumar epifluorescence microscope equipped with the proper filters for Fluorescein Isothiocyanate (FITC) excitation and emission. Lack of effect of a compound is evidenced by the presence of an intact microtubule network in interphase cells, or a mitotic spindle in dividing cells. Antineoplastic compounds of the invention at effective doses result in the disappearance of microtubules in both interphase and mitotic cells.

Candida albicans SRI 523 = test: Agar disc diffusion assay; format: cell-based; details: 240 ug/disc, about 24 hr at 37° C.
Experimental: (§1) The activity of the compounds is determined using the following assay. The compound is dissolved in DMSO at a concentration of 6 mg/ml and then diluted with water to a final concentration of 3 mg/ml in 50% DMSO (% DMSO was shown not to be inhibitory to the test organisms). An aliquot (0.08 ml) of each drug solution was transferred to filter paper discs (12.7 mm diameter, Scmeicherand Schuell) for use in the agar diffusion assay. The concentration of each drug on the filter paper disc was 240 ug/disc. The test organisms included the following: Gram-positive aerobes (Staphylococcus aureus SRI 1323, Streptococcus pneumoniae SRI 1167); Gram-negative aerobe (Proteus vulgaris SRI 180); and the yeast Candida albicans SRI 523. An agar disc diffusion assay was used to evaluate the antimicrobial activity of the test compounds. Briefly, cultures were prepared from 16-20 hr agar slant cultures by inoculating in physiological saline to a turbidity equivalent to a #0.5 McFarland turbidity standard for the bacteria and a #3 McFarland standard for C. albicans. The surface of Mueller-Hinton agar (15×100 mm plates, mm) were evenly inoculated with each standardized culture using a cotton swab. Filter paper discs containing the drug concentration listed above were then placed on the inoculated agar plates along with a disc containing the solvent used to dissolve each drug. The plates were incubated at 37° C. for about 24 hr and the diameters of the zones of inhibition measured with a vernier caliper. Positive control drugs consisted of streptomycin for use with the bacterial strains and 5-fluorocytosine for use with C. albicans. The positive control drugs were assayed as described above for the compounds of the present invention using the same concentration.

Proteus vulgaris SRI 180 = test: Agar disc diffusion assay; format: cell-based; details: 240 ug/disc, about 24 hr at 37° C., 0 = no measurable zone
Experimental: as §1

[6] = test system: Staphylococcus aureus SRI 1323; test: Agar disc diffusion assay; format: cell-based; details: 240 ug/disc, about 24 hr at 37° C.
Experimental: as §1

[7] = test system: Streptococcus pneumoniae SRI 1167; test: Agar disc diffusion assay; format: cell-based; details: 240 ug/disc, about 24 hr at 37° C., + = zone too large to measure
Experimental: as §1

SMILES	IC50 [1]	production of paired helical filament epitopes (PHF-1 immunoreactivity, western blot) ([2]; FIG. 3)	production of paired helical filament epitopes (PHF-1 immunoreactivity, western blot) ([2]; FIG. 3, listed as CPZ)	SIGNAL ± SEM Frontal ([3]; post-mortem frontal brain tissue)	SIGNAL ± SEM Temporal ([3]; post-mortem temporal brain tissue)	PHF epitope levels (ALZ-EIA) [4]	minimal effective concentration [5]	Diameter of the zone of inhibition, C. albicans (Candida albicans SRI 523)	Diameter of the zone of inhibition, P. vulgaris (Proteus vulgaris SRI 180)	Diameter of the zone of inhibition, S. aureus [6]	Diameter of the zone of inhibition, S. pneumoniae [7]	zone of inhibition at 240 µg/disc (Candida albicans SRI 523; Candida albicans, SRI523, read-out: Diameter of the zone of inhibition, C. albicans)	zone of inhibition at 240 µg/disc (Proteus vulgaris SRI 180; Proteus vulgaris, SRI180, read-out: Diameter of the zone of inhibition, P. vulgaris)	zone of inhibition at 240 µg/disc ([6]; Staphylococcus aureus, SRI1323, read-out: Diameter of the zone of inhibition, S. aureus)	zone of inhibition at 240 µg/disc ([7]; Streptococcus pneumoniae, SRI1167, read-out: Diameter of the zone of inhibition, S. pneumoniae)
CN(C)CCCN1c2ccccc2Sc2ccc(Cl)cc21 [Chlorpromazine, chlorpromazine]	~70 µM	markedly inhibit the expression of PHF epitopes	greatly decreased the production of paired helical filament epitopes	0.12 ± 0.11	0.16 ± 0.11	low PHF epitope levels similar to normal controls	–	–	–	–	–	–	–	–	–
Cl.Cl.O=C(CCN1CCN(Cc2ccccc2)CC1)c1ccc([N+](=O)[O-])cc1 [Example 5]	–	–	–	–	–	–	4 µM	17.6 mm	17.3 mm	22.8 mm	29.9 mm	–	–	–	–
O=C(CCN1CCN(Cc2ccccc2)CC1)c1nccs1 [Example 76, 1-(2-Thiazolyl)-3-(4′-benzyl-1′-piperazinyl)-1-propanone dihydrochloride]	10.5 µM	–	–	–	–	–	–	–	–	–	–	20.9 mm	20.5 mm	19.3 mm	35.5 mm
